Assays:
[1] = target: ePDZ-b1; details: cited from earlier work
[2] = target: T1, Erbin-PDZ-FN affinity clamp complex (Homo sapiens, UniProt Q96RT1); assay: Induction of the TVMV-based allosteric receptor by PDZ ligands of different affinity; type: biochemical; details: FIG. 11C
T1 construct: made in house; host or cells: E. coli BL21(DE3)-RIL
Experimental: The maximum induction ratio of TVMV-based allosteric receptors (500 nM) was measured in a similar fashion in the presence or absence of the PDZ ligand peptide-1 ([…]) at a final concentration of 10 μM in protease assay buffer consisting of 50 mM Tris-HCl, 1 M NaCl, 1 mM DTT and 0.5 mM EDTA, pH 8.0. The reaction was generally initiated following the addition of TVMV substrate peptide (Table 1) to a final concentration of 10 μM.
A set of different allosterically regulated proteases was constructed by varying the composition of the three different linkers connecting TVMV to the Erbin-PDZ domain (Linker 1), the Erbin-PDZ domain to the FN3 domain (Linker 2) and the FN3 domain to the AI-domain (Linker 3). […] The largest modulation was effected by progressively shortening and lengthening linker L1.

Sequence of ePDZ-b1 (as listed by the source): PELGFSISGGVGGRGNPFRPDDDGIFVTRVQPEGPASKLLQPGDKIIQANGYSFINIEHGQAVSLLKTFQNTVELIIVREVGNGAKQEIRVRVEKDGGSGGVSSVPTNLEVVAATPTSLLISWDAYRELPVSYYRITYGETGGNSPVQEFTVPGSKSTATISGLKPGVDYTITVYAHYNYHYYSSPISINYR
T1 sequence (Q96RT1 with tags, fused parts or gaps limits assumed): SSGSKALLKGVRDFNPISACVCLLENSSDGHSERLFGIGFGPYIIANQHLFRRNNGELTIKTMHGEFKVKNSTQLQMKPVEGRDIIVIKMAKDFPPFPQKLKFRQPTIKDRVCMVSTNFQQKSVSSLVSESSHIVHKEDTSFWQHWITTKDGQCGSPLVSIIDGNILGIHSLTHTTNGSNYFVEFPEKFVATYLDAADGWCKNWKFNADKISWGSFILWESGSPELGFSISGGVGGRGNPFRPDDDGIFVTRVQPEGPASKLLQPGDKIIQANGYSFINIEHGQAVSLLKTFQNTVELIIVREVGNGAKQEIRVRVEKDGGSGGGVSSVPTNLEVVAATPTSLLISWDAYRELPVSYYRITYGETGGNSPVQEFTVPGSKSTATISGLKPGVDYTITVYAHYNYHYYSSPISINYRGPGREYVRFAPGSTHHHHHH

Sequence: PQPVDSWV [PDZ-Ligand 2]
- Kd [1]: ~5 nM
- induction of activity compared to the higher affinity PDZ peptide ligand-1 [2]: approximately 10 fold lower

Sequence: RGSIDTWV [PDZ-Ligand 1]
- Kd [1]: ~0.625 nM

Reference: patent publication US9791436B2, “Protease-based biosensor” (priority 2012, dated 2017)
